Bridge positions count the residues as written; N and C are the ends. Peptide text beside a SMILES is read from it. Where only a bound is given, the exact number is not on record here.

A short description of data set [1]: Circular dichroism, calculated helicity. It counts as physicochemical. The conditions noted are these: 10 mM sodium phosphate pH 7.4, 75 to 10 µM peptide, CDNN software PEPFIT mode, unbound peptide. The procedure:
The spectra were obtained using a Jasco J-715 and a cuvette 0.1 mm. Represented CD spectra are an average of five measurements done between λ = 190 and 300 nm with a continuous scan mode, 50 nm min^−1 scan speed and data point every 1 nm. The α-helicity was calculated using CDNN software using the PEPFIT mode[42].

In the next data set the target is T1, GST-hTEAD1 (Homo sapiens, UniProt P28347).
T1 construct: CDNA of hTEAD1(209–426) fused with an N-terminal GST tag; made in house; host or cells: Escherichia coli BL21 DE3 RIL(K+)
T1 sequence (P28347 209-426): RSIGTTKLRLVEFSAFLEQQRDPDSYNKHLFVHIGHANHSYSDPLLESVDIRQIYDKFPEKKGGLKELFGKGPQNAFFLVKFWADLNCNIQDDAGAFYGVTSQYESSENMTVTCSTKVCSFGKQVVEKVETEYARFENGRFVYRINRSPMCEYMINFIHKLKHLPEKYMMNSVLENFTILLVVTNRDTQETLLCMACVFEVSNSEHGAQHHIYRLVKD
Kind of data set: SPR binding to immobilised GST-hTEAD1. Particulars: GST-hTEAD1 amine-coupled on CM5, multi-cycle, steady-state fit 1:1 model, 10 mM HEPES 150 mM NaCl 0.05% Tween-20 pH 7.4, 0.3% DMSO, 20 °C, Fig. 1 values n = 1 replicate. The procedure:
(§1) Sensor chips Series S CM5 (Research grade) were obtained from GE Healthcare. Prior to use, the sensor chips were equilibrated at room temperature for 15 min to prevent water condensation on the detector side of the sensor chip surface. A running buffer was prepared composed of 10 mM HEPES, 150 mM NaCl, and 0.05% (w/v) Tween-20, pH 7.4, and the system was equilibrated at 20 °C using a flow rate of 30 µL min^−1 after docking of the sensor chip. Ligand binding experiments have been performed applying the concept of multi-cycle kinetics. A contact time of 45 s was selected, followed by a 6-min dissociation phase to allow for complete dissociation of the analyte prior to the next cycle. […] Typically, seven concentrations of the analytes have been examined applying a threefold dilution pattern with 30 µM as top concentration. For the analysis, five running buffer blanks were injected to equilibrate the instrument. […] The carboxyl-dextran surface was activated for 7 min with 0.05 M NHS and 0.2 M EDC, followed by an injection of the proteins in 10 mM MES pH 6.4 at a concentration of 30–50 µg mL^−1. […] This was followed by a deactivation of the residual esters by injecting a solution of 0.5 M ethanolamine pH 8.0 for 7 min before engaging in ligand binding experiments. Reference surfaces were prepared accordingly, omitting the injection of protein over the activated reference surface.
In general terms: In SPR one partner is held on a chip, and binding of the other changes the refractive index at the surface.

Data set [2] has as its target T2, mTEAD4 (Mus musculus, UniProt Q62296).
T2 construct: Mouse TEAD4(210–427) cDNA fused with a 6x His-tag and a 3C protease cleavage site; 6x His-tag; 3C protease cleavage site; made in house; host or cells: E. coli BL21 DE3 RIL(K+)
Kind of data set: SPR binding to immobilised mTEAD4. Particulars: mTEAD4 amine-coupled on CM5, multi-cycle, steady-state fit 1:1 model, 10 mM HEPES 150 mM NaCl 0.05% Tween-20 pH 7.4, 0.3% DMSO, 20 °C, Fig. 1 values n = 1 replicate. The procedure:
as §1

Data set [3] deals with T2, mTEAD4. Kind of data set: Competition fluorescence polarization with mTEAD4 (alanine scan). In kind it is binding. The conditions noted are these: Ac-peptide vs FITC-labelled tracer peptide 10 nM, mTEAD4 400 nM, 1 h. The procedure:
Competition FP: N-terminally acetylated peptides were diluted 1:1 in a 384-well plate (5 μL, 75 μM−9 pM). Ten microlitres of a mixture (1:1) of mTEAD4 and FITC-labelled peptide was added (final concentrations: acetylated peptides = 50 μM−6 pM; mTEAD4 protein = 400 nM; FITC-labelled tracer peptide = 10 nM). After 1 h, FP was measured (λ(ex) = […]). IC50 was determined from the binding curve with GraphPad from Prism.
(Polarisation of emitted light reports the rotation of a fluorescent probe.)

A further data set has as its target T3, hTEAD1 (Homo sapiens, UniProt P28347).
T3 construct: CDNA of hTEAD1(209–426) fused with an N-terminal GST tag; GST (N); 6x His-tag (N); 3C protease cleavage site (N); made in house; host or cells: Escherichia coli BL21 DE3 RIL(K+)
Kind of data set: Direct fluorescence polarization with hTEAD1. It counts as binding. Particulars: direct FP, fluorescent cofactor 10 nM titrated with hTEAD1, 1 h; triplicates; read-out: FP hTEAD1 Kd of FITC labelled cofactor. The procedure:
Supplementary Figure 15│ Binding studies of hTEAD1 by fluorescence polarization. Dissociation constants were measured […]
The fluorescent cofactor (10 nM) are directly titrated with hTEAD1. After 1 hour of incubation, fluorescence polarization was measured, and a non-linear fitting was applied to the curves to determine the […]
In the competitive binding assay, first a complex with the fluorescent cofactor (10 nM) and hTEAD1 (100 nM) was formed and after 1 hour of incubation, the unlabelled peptide was titrated. After 1 hour of incubation, fluorescence polarization was measured, and a non-linear fitting was applied to the curves to determine the half maximal inhibitory concentration. (c) Competition assay […]
Mean ± SEM of triplicates were plotted for all data. Source data are provided as a Source Data file.
(1 picture or pasted object on this page, not shown here)

T2 sequence (Q62296 210-427): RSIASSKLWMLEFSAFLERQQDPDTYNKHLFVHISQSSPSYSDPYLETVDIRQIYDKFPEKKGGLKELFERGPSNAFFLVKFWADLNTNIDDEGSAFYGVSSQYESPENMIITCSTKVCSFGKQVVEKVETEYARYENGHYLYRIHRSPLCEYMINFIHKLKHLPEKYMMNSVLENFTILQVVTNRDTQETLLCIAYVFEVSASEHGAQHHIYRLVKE
T3 sequence (P28347 209-426): as the sequence (P28347 209-426) above

One may read the Kd as the equilibrium constant for the complex coming apart. With `CC(=O)N[C@@H](CO)C(=O)N[C@H](C(=O)N[C@@H](CC(=O)O)C(=O)N[C@@H](CC(=O)O)C(=O)N[C@@H](Cc1c[nH]cn1)C(=O)N[C@@H](Cc1ccccc1)C(=O)N[C@@H](C)C(=O)N[C@@H](CCCCN)C(=O)N[C@@H](C)C(=O)N[C@@H](CC(C)C)C(=O)NCC(N)=O)C(C)C` [compound 5] (Ac-SVDDHFAKALG-NH2), the “Helicity (CD)” value in data set [1] is given as less than 5%. Further, the Kd at GST-hTEAD1 and at mTEAD4 [2] was greater than 100 µM in each case.
By IC50 is commonly meant the point on the concentration scale where inhibition reaches its midpoint. Low readings indicate higher potency, high ones lower potency. `CC[C@H](C)[C@@H]1NC(=O)[C@H](CCC(N)=O)NC(=O)[C@H](CC(C)C)NC(=O)[C@H](Cc2c[nH]c3ccccc23)NC(=O)[C@H]([C@@H](C)O)NC(=O)[C@H](CC(=O)O)NC(=O)CNC(=O)[C@H](CC(C)C)NC(=O)[C@H](C)NC(=O)[C@H](CCCCN)NC(=O)[C@H](C)NC(=O)[C@H](Cc2ccccc2)NC(=O)[C@H](C)NC(=O)[C@H](CC(=O)O)NC(=O)[C@@H](NC(=O)[C@@H](NC(=O)[C@H](CO)NC(C)=O)C(C)C)CCC(=O)NCCCC[C@@H](C(=O)N[C@@H](C)C(=O)N[C@@H](C)C(N)=O)NC1=O` [compound 17] (Ac-SVEDAFAKALGDTWLQIKAA-NH2; lactam 3-18) yielded an IC50 on mTEAD4 [3] greater than 100 µM. Also, the Kd at GST-hTEAD1 and at mTEAD4 [2] was greater than 100 µM in each case.
The molecule `CC[C@H](C)[C@@H]1NC(=O)[C@H](CCC(N)=O)NC(=O)[C@H](CC(C)C)NC(=O)[C@H](Cc2c[nH]c3ccccc23)NC(=O)[C@H]([C@@H](C)O)NC(=O)[C@H](CC(=O)O)NC(=O)CNC(=O)[C@H](CC(C)C)NC(=O)[C@H](C)NC(=O)[C@H](CCCCN)NC(=O)[C@H](C)NC(=O)[C@H](C)NC(=O)[C@H](Cc2c[nH]cn2)NC(=O)[C@H](CC(=O)O)NC(=O)[C@@H](NC(=O)[C@@H](NC(=O)[C@H](CO)NC(C)=O)C(C)C)CCC(=O)NCCCC[C@@H](C(=O)N[C@@H](C)C(=O)N[C@@H](C)C(N)=O)NC1=O` [compound 18] (Ac-SVEDHAAKALGDTWLQIKAA-NH2; lactam 3-18) displayed an IC50 at mTEAD4 [3] greater than 50 µM. Besides, the Kd on GST-hTEAD1 and at mTEAD4 [2] was greater than 100 µM each time.
In turn, `CC[C@H](C)[C@@H]1NC(=O)[C@H](CCC(N)=O)NC(=O)[C@H](CC(C)C)NC(=O)[C@H](Cc2c[nH]c3ccccc23)NC(=O)[C@H]([C@@H](C)O)NC(=O)[C@H](CC(=O)O)NC(=O)CNC(=O)[C@H](C)NC(=O)[C@H](C)NC(=O)[C@H](CCCCN)NC(=O)[C@H](C)NC(=O)[C@H](Cc2ccccc2)NC(=O)[C@H](Cc2c[nH]cn2)NC(=O)[C@H](CC(=O)O)NC(=O)[C@@H](NC(=O)[C@@H](NC(=O)[C@H](CO)NC(C)=O)C(C)C)CCC(=O)NCCCC[C@@H](C(=O)N[C@@H](C)C(=O)N[C@@H](C)C(N)=O)NC1=O` [compound 20] (Ac-SVEDHFAKAAGDTWLQIKAA-NH2; lactam 3-18) yielded an IC50 on mTEAD4 [3] greater than 100 µM. The Kd on GST-hTEAD1 and on mTEAD4 [2] was greater than 100 µM each time.
On mTEAD4 [3], `CC[C@H](C)[C@@H]1NC(=O)[C@H](CCC(N)=O)NC(=O)[C@H](CC(C)C)NC(=O)[C@H](Cc2c[nH]c3ccccc23)NC(=O)[C@H]([C@@H](C)O)NC(=O)[C@H](C)NC(=O)CNC(=O)[C@H](CC(C)C)NC(=O)[C@H](C)NC(=O)[C@H](CCCCN)NC(=O)[C@H](C)NC(=O)[C@H](Cc2ccccc2)NC(=O)[C@H](Cc2c[nH]cn2)NC(=O)[C@H](CC(=O)O)NC(=O)[C@@H](NC(=O)[C@@H](NC(=O)[C@H](CO)NC(C)=O)C(C)C)CCC(=O)NCCCC[C@@H](C(=O)N[C@@H](C)C(=O)N[C@@H](C)C(N)=O)NC1=O` [compound 21] (Ac-SVEDHFAKALGATWLQIKAA-NH2; lactam 3-18) registered an IC50 greater than 100 µM. Besides, the Kd at GST-hTEAD1 and at mTEAD4 [2] was greater than 100 µM throughout.
`CC[C@H](C)[C@@H]1NC(=O)[C@H](CCC(N)=O)NC(=O)[C@H](CC(C)C)NC(=O)[C@H](C)NC(=O)[C@H]([C@@H](C)O)NC(=O)[C@H](CC(=O)O)NC(=O)CNC(=O)[C@H](CC(C)C)NC(=O)[C@H](C)NC(=O)[C@H](CCCCN)NC(=O)[C@H](C)NC(=O)[C@H](Cc2ccccc2)NC(=O)[C@H](Cc2c[nH]cn2)NC(=O)[C@H](CC(=O)O)NC(=O)[C@@H](NC(=O)[C@@H](NC(=O)[C@H](CO)NC(C)=O)C(C)C)CCC(=O)NCCCC[C@@H](C(=O)N[C@@H](C)C(=O)N[C@@H](C)C(N)=O)NC1=O` [compound 23] (Ac-SVEDHFAKALGDTALQIKAA-NH2; lactam 3-18): at mTEAD4 [3], the IC50 was greater than 50 µM. The same molecule registered a Kd on mTEAD4 [2] of 15 ± 0.85 µM.
On to “Ac-DPVVEEHFRRSLGKNYKEPEPAPNSVSITGSVDDHFAKALGDTWLQIKAAKDSA-NH2 (N-terminus and C-terminus assumed) [compound 1]”, for which the Kd worked out at 1.4 µM at GST-hTEAD1, 2 µM on mTEAD4 [2] and 0.017 ± 0.0025 µM at hTEAD1.

The values above are taken from publication PMC7591920, “A protein tertiary structure mimetic modulator of the Hippo signalling pathway” (Nature Communications, 2020).
